The record followed here is US12161722B2, “Bifunctional heterocyclic compound having BTK degradation function via ubiquitin proteasome pathway, and use thereof” (KOREA RESEARCH INSTITUTE OF CHEMICAL TECHNOLOGY, priority 2021, dated 2024).

Molecules are shown by their SMILES.

For the test, the target named is T1, WT BTK protein (Homo sapiens, UniProt Q06187).
T1 construct: measured for intracellular BTK protein levels by Western blotting; endogenous in cells; host or cells: TMD-8 or RAMOS cells
T1 sequence (Q06187 whole entry): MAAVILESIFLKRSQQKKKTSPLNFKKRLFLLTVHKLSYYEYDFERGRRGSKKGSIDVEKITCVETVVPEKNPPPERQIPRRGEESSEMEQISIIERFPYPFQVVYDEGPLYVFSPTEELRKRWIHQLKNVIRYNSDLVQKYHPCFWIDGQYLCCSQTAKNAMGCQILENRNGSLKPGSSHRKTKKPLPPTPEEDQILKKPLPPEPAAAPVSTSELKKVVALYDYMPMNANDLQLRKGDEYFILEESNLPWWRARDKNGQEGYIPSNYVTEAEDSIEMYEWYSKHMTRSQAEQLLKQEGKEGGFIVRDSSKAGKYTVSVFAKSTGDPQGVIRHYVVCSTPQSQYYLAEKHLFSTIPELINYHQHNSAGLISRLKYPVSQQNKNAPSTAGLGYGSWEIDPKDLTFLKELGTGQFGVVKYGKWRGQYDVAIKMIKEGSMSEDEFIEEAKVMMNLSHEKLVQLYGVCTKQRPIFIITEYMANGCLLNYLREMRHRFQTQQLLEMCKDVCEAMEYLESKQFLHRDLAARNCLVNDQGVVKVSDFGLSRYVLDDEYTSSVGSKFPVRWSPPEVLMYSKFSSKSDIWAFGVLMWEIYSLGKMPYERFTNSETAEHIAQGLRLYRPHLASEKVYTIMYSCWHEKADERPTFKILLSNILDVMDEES
Briefly: BTK protein degradation assay (Western blotting), WT BTK. In kind it is cell-based. The conditions noted are these: concentration range accounting for 50% degradation of WT BTK protein, TMD-8 or RAMOS cells, 24 hours. The gist of the method:
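BTK levels were read by Western blotting (GAPDH and β-actin normalisers) in RIPA lysates of TMD-8 cells exposed to compounds for 24 h at 1×10^6 cells/mL. Results scored in ranges of the concentration producing 50% loss of WT BTK.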
(A western blot detects proteins with antibodies after separation by electrophoresis.)
Regarding `Cc1cccc(C)c1Nc1nn(C)c2nc(Nc3ccc4c(c3)CN(C(=S)C3CCN(C(=O)CNc5ccc6c(c5)C(=O)N(C5CCC(=O)NC5=O)C6=O)CC3)CC4)ncc12` (stereo not shown) [Compound 235, 5-((2-(4-(7-((3-((2,6-dimethylphenyl)amino)-1-methyl-1H-pyrazolo[3,4-d]pyrimidin-6-yl)amino)-1,2,3,4-tetrahydroisoquinoline-2-carbonothioyl)piperidin-1-yl)-2-oxoethyl)amino)-2-(2,6-dioxopiperidin-3-yl)isoindoline-1,3-dione], the DC50 (usually the concentration at which degradation of the target reaches its halfway point) fell in the range of 0.1 to 10 nM. The same measure for `Cc1cccc(C)c1Nc1nn(C)c2nc(Nc3ccc4c(c3)CN(C(=O)[C@@H]3CCCN3C(=O)COc3ccc5c(c3)C(=O)N(C3CCC(=O)NC3=O)C5=O)CC4)ncc12` (stereo partly drawn) [Compound 34, 5-(2-((S)-2-(7-((3-((2,6-Dimethylphenyl)amino)-1-methyl-1H-pyrazolo[3,4-d]pyrimidin-6-yl)amino)-1,2,3,4-tetrahydroisoquinoline-2-carbonyl)pyrrolidin-1-yl)-2-oxoethoxy)-2-(2,6-dioxopiperidin-3-yl)isoindoline-1,3-dione]: 10 to 1000 nM; for `Cc1cccc(C)c1Nc1nn(C)c2nc(Nc3ccc4c(c3)CN(C(=O)C3CCN(C(=O)CN5CCN(c6ccc7c(c6)C(=O)N(C6CCC(=O)NC6=O)C7=O)CC5)CC3)CC4)ncc12` (stereo not shown) [Compound 44, 5-(4-(2-(4-(7-((3-((2,6-Dimethylphenyl)amino)-1-methyl-1H-pyrazolo[3,4-d]pyrimidin-6-yl)amino)-1,2,3,4-tetrahydroisoquinoline-2-carbonyl)piperidin-1-yl)-2-oxoethyl)piperazin-1-yl)-2-(2,6-dioxopiperidin-3-yl)isoindoline-1,3-dione]: 0.1 to 10 nM. In the case of `Cc1cccc(C)c1Nc1nn(C)c2nc(Nc3ccc(C4CCN(C5CCN(c6ccc7c(c6)C(=O)N(C6CCC(=O)NC6=O)C7=O)CC5)CC4)cc3)ncc12` (stereo not shown) [Compound 168, 5-(4-(4-((3-((2,6-Dimethylphenyl)amino)-1-methyl-1H-pyrazolo[3,4-d]pyrimidin-6-yl)amino)phenyl)-[1,4′-bipyridin]-1′-yl)-2-(2,6-dioxopiperidin-3-yl)isoindoline-1,3-dione] it was 0.1 to 10 nM. The same measure for `Cc1cccc(C)c1Nc1nn(C)c2nc(Nc3ccc(N4CCN(CC5CCN(C(=O)c6ccc7c(c6)CN(C6CCC(=O)NC6=O)C7=O)CC5)CC4)cc3)ncc12` (stereo not shown) [Compound 256, 3-(5-(4-((4-(4-((3-((2,6-Dimethylphenyl)amino)-1-methyl-1H-pyrazolo[3,4-d]pyrimidin-6-yl)amino)phenyl)piperazin-1-yl)methyl)piperidine-1-carbonyl)-1-oxoisoindolin-2-yl)piperidin-2,6-one]: 0.1 to 10 nM; for `Cc1cccc(C)c1Nc1nn(C)c2nc(Nc3ccc4c(c3)CN(C[C@@H]3CCN(c5ccc6c(c5)C(=O)N(C5CCC(=O)NC5=O)C6=O)C3)CC4)ncc12` (stereo partly drawn) [Compound 145, 5-((S)-3-((7-((3-((2,6-Dimethylphenyl)amino)-1-methyl-1H-pyrazolo[3,4-d]pyrimidin-6-yl)amino)-3,4-dihydroisoquinolin-2 (1H)-yl)methyl)pyrrolidin-1-yl)-2-(2,6-dioxopiperidin-3-yl)isoindoline-1,3-dione]: 0.1 to 10 nM; for `Cc1cccc(C)c1Nc1nn(C)c2nc(Nc3cccc(CNCC4CCN(c5ccc6c(c5)C(=O)N(C5CCC(=O)NC5=O)C6=O)CC4)c3)ncc12` (stereo not shown) [Compound 41, 5-(4-(((3-((3-((2,6-Dimethylphenyl)amino)-1-methyl-TH-pyrazolo[3,4-d]pyrimidin-6-yl)amino)benzyl)amino)methyl)piperidin-1-yl)-2-(2,6-dioxopiperidin-3-yl)isoindoline-1,3-dione]: 10 to 1000 nM.

For `Cc1cccc(Br)c1Nc1nn(C)c2nc(Nc3ccc4c(c3)CN(CC3CCN(c5ccc6c(c5)C(=O)N(C5CCC(=O)NC5=O)C6=O)CC3)CC4)ncc12` (stereo not shown) [Compound 195, 5-(4-((7-((3-((2-Bromo-6-methylphenyl)amino)-1-methyl-1H-pyrazolo[3,4-d]pyrimidin-6-yl)amino)-3,4-dihydroisoquinolin-2 (1H)-yl)methyl)piperidin-1-yl)-2-(2,6-dioxopiperidin-3-yl)isoindoline-1,3-dione], the half-maximal degradation concentration (DC50) lay within 0.1 to 10 nM. For the compound `Cc1ccccc1Nc1nn(C)c2nc(Nc3ccc4c(c3)CN(CC3CCN(c5ccc6c(c5)C(=O)N(C5CCC(=O)NC5=O)C6=O)CC3)CC4)ncc12` (stereo not shown) [Compound 84, 2-(2,6-Dioxopiperidin-3-yl)-5-(4-((7-((1-methyl-3-(o-tolylamino)-1H-pyrazolo[3,4-d]pyrimidin-6-yl)amino)-3,4-dihydroisoquinolin-2 (1H)-yl)methyl)piperidin-1-yl)isoindoline-1,3-dione], the DC50 fell in the range of 0.1 to 10 nM. The same measure for `Cc1cccc(C)c1Nc1nn(C)c2nc(Nc3ccc4c(c3)CN(C(=O)C3(F)CCN(c5ccc6c(c5)C(=O)N(C5CCC(=O)NC5=O)C6=O)CC3)CC4)ncc12` (stereo not shown) [Compound 243, 5-(4-(7-((3-((2,6-dimethylphenyl)amino)-1-methyl-1H-pyrazolo[3,4-d]pyrimidin-6-yl)amino)-1,2,3,4-tetrahydroisoquinoline-2-carbonyl)-4-fluoropiperidin-1-yl)-2-(2,6-dioxopiperidin-3-yl)isoindoline-1,3-dione]: 0.1 to 10 nM; for `Cc1cccc(C)c1Nc1nn(C)c2nc(Nc3ccc4c(c3)CN(C(=O)COc3ccc5c(c3)C(=O)N(C3CCC(=O)NC3=O)C5=O)CC4)ncc12` (stereo not shown) [Compound 194, 5-(2-(7-((3-((2,6-Dimethylphenyl)amino)-1-methyl-1H-pyrazolo[3,4-d]pyrimidin-6-yl)amino)-3,4-dihydroisoquinolin-2 (1H)-yl)-2-oxoethoxy)-2-(2,6-dioxopiperidin-3-yl)isoindoline-1,3-dione]: 10 to 1000 nM; for `Cc1cccc(C)c1Nc1nn(C)c2nc(Nc3ccc4c(c3)CN(CCNc3ccc5c(c3)C(=O)N(C3CCC(=O)NC3=O)C5=O)CC4)ncc12` (stereo not shown) [Compound 123, 5-((2-(7-((3-((2,6-Dimethylphenyl)amino)-1-methyl-1H-pyrazolo[3,4-d]pyrimidin-6-yl)amino)-3,4-dihydroisoquinolin-2 (1H)-yl)ethyl)amino)-2-(2,6-dioxopiperidin-3-yl)isoindoline-1,3-dione]: 10 to 1000 nM.

In the case of `Cc1cccc(C)c1Nc1nn(C)c2nc(Nc3ccc4c(c3)CN(C3CN(CC5CN(c6ccc7c(c6)C(=O)N(C6CCC(=O)NC6=O)C7=O)C5)C3)CC4)ncc12` (stereo not shown) [Compound 152, 5-(3-((3-(7-((3-((2,6-Dimethylphenyl)amino)-1-methyl-TH-pyrazolo[3,4-d]pyrimidin-6-yl)amino)-3,4-dihydroisoquinolin-2 (1H)-yl)azetidin-1-yl)methyl)azetidin-1-yl)-2-(2,6-dioxopiperidin-3-yl)isoindoline-1,3-dione], the 50% degradation concentration (DC50) lay within 0.1 to 10 nM. In the case of `Cc1cccc(C)c1Nc1nn(C)c2nc(Nc3ccc4c(c3)CN(C3CCN(C[C@H]5CCN(c6ccc7c(c6)C(=O)N(C6CCC(=O)NC6=O)C7=O)C5)CC3)CC4)ncc12` (stereo partly drawn) [Compound 142, 5-((R)-3-((4-(7-((3-((2,6-dimethylphenyl)amino)-1-methyl-1H-pyrazolo[3,4-d]pyrimidin-6-yl)amino)-3,4-dihydroisoquinolin-2 (1H)-yl)piperidin-1-yl)methyl)pyrrolidin-1-yl)-2-(2,6-dioxopiperidin-3-yl)isoindoline-1,3-dione] it was 0.1 to 10 nM; in that of `Cc1cccc(C)c1Nc1nn(C)c2nc(Nc3ccc(C4CN(CC5CCN(c6ccc7c(c6)C(=O)N(C6CCC(=O)NC6=O)C7=O)CC5)C4)cc3)ncc12` (stereo not shown) [Compound 175, 5-(4-((3-(4-((3-((2,6-Dimethylphenyl)amino)-1-methyl-1H-pyrazolo[3,4-d]pyrimidin-6-yl)amino)phenyl)azetidin-1-yl)methyl)piperidin-1-yl)-2-(2,6-dioxopiperidin-3-yl)isoindoline-1,3-dione], 0.1 to 10 nM.

Consider `COCCOc1cc(C)c(Nc2nn(C)c3nc(Nc4ccc5c(c4)CN(CC4CCN(c6ccc7c(c6)C(=O)N(C6CCC(=O)NC6=O)C7=O)CC4)CC5)ncc23)c(C)c1` (stereo not shown) [Compound 76, 2-(2,6-Dioxopiperidin-3-yl)-5-(4-((7-((3-((4-(2-methoxyethoxy)-2,6-dimethylphenyl)amino)-1-methyl-1H-pyrazolo[3,4-d]pyrimidin-6-yl)amino)-3,4-dihydroisoquinolin-2 (1H)-yl)methyl)piperidin-1-yl)isoindoline-1,3-dione], for which the half-maximal degradation concentration (DC50) fell in the range of 10 to 1000 nM. In the case of `Cc1cccc(C)c1Nc1nn(C)c2nc(Nc3ccc(C4CCN(C(=O)CN5CCN(c6ccc7c(c6)C(=O)N(C6CCC(=O)NC6=O)C7=O)CC5)CC4)cc3)ncc12` (stereo not shown) [Compound 225, 5-(4-(2-(4-(4-((3-((2,6-dimethylphenyl)amino)-1-methyl-1H-pyrazolo[3,4-d]pyrimidin-6-yl)amino)phenyl)piperidin-1-yl)-2-oxoethyl)piperazin-1-yl)-2-(2,6-dioxopiperidin-3-yl)isoindoline-1,3-dione] it was 0.1 to 10 nM. The same measure for `Cc1cccc(C)c1Nc1nn(C)c2nc(Nc3ccc4c(c3)CN(CC3CCN(c5cc6c(cc5F)C(=O)N(C5CCC(=O)NC5=O)C6)CC3)CC4)ncc12` (stereo not shown) [Compound 220, 3-(5-(4-((7-((3-((2,6-Dimethylphenyl)amino)-1-methyl-1H-pyrazolo[3,4-d]pyrimidin-6-yl)amino)-3,4-dihydroisoquinolin-2 (1H)-yl)methyl)piperidin-1-yl)-6-fluoro-1-oxoisoindolin-2-yl)piperidin-2,6-one]: 0.1 to 10 nM; for `Cc1cccc(C)c1Nc1nn(C)c2nc(Nc3ccc4c(c3)CN(CC3(NC(=O)C5CCN(c6ccc7c(c6)C(=O)N(C6CCC(=O)NC6=O)C7=O)CC5)CC3)CC4)ncc12` (stereo not shown) [Compound 204, N-(1-((7-((3-((2,6-dimethylphenyl)amino)-1-methyl-1H-pyrazolo[3,4-d]pyrimidin-6-yl)amino)-3,4-dihydroisoquinolin-2 (1H)-yl)methyl)cyclopropyl)-1-(2-(2,6-dioxopiperidin-3-yl)-1,3-dioxoisoindolin-5-yl)piperidine-4-carboxamide]: 0.1 to 10 nM.
